This assay relates to Aβ42 production. Put plainly: Quantification of Aβ peptide in culture of neurons from rat fetus brain (Aβ ELISA). The assay is classed as cell-based. To be noted: Neuron, 72 h; rat primary neuronal culture (cerebral cortex, embryonic day 18 Wistar rats); medium collected three days after addition of the compound; Aβx-42 ELISA; read-out: Aβ42 production reducing effect IC50. An outline of the steps:
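Primary cortical neurons from embryonic day 18 Wistar rats were cultured 4 days, then exposed to compound in Neurobasal/B27 without 2-ME, final DMSO ≤1%. After three days, medium was collected and Aβx-42 measured undiluted by sandwich ELISA.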

Broadly, the IC50 is the concentration at which inhibition is half-maximal.

`N#Cc1ccc(C(=O)Nc2cc(Cl)cc([C@]34CCC[C@H]3CSC(N)=N4)c2)nc1` (racemic) [Example 240, (±)-N-[3-((4aR*,7aS*)-2-amino-4a,5,6,7-tetrahydro-4H-cyclopenta[d][1,3]thiazin-7a-yl)-5-chlorophenyl]-5-cyanopyridine-2-carboxamide]: the IC50 stood at 39 nM. Then `CSc1cnc(C(=O)Nc2ccc(F)c([C@]34CCC[C@H]3CSC(N)=N4)c2)cn1` (single isomer, unassigned) [Example 135, N-[3-((4aR*,7aS*)-2-amino-4a,5,6,7-tetrahydro-4H-cyclopenta[d][1,3]thiazin-7a-yl)-4-fluorophenyl]-5-methylsulfanyl-pyrazine-2-carboxamide], with 15 nM; and `NC1=N[C@@]2(c3cc(NC(=O)c4ccc(C(F)(F)F)cn4)ccc3F)CCOC[C@H]2CS1` (single isomer, unassigned) [Example 186, N-[3-((4aS*,8aS*)-2-amino-4a,5,7,8-tetrahydro-4H-6-oxa-3-thia-1-azanaphthalen-8a-yl)-fluorophenyl]-5-trifluoromethylpyridine-2-carboxamide], with 30 nM; and `NC1=N[C@@]2(c3cc(NC(=O)c4ncccn4)ccc3F)CCC[C@H]2CS1` [Example 198], with 129 nM. Consider `NC1=N[C@@]2(c3cc(NC(=O)c4ccc(C(F)(F)F)cn4)ccc3F)COC[C@H]2CS1` (relative stereo) [Example 165, N-[3-((4aS*,7aS*)-2-amino-4a,5-dihydro-4H-furo[3,4-d][1,3]thiazin-7a-yl)-4-fluorophenyl]-5-trifluoromethylpyridine-2-carboxamide], for which the IC50 was 12 nM. Then `CO[C@@H]1C[C@H]2CSC(N)=N[C@@]2(c2cc(NC(=O)c3ccc(C#N)cn3)ccc2F)C1` (relative stereo) [Example 32, (+)-N-[3-((4aR*,6R*,7aS*)-2-amino-6-methoxy-4a,5,6,7-tetrahydro-4H-cyclopenta[d][1,3]thiazin-7a-yl)-4-fluorophenyl]-5-cyanopyridine-2-carboxamide], with 1.1 nM. Then `N#Cc1ccc(C(=O)Nc2ccc(F)c([C@]34CCO[C@H](CF)[C@H]3CSC(N)=N4)c2)nc1` (relative stereo) [Example 143, N-[3-((4aS*,5S*,8aS*)-2-amino-5-fluoromethyl-4a,5,7,8-tetrahydro-4H-6-oxa-3-thia-1-azanaphthalen-8a-yl)-4-fluorophenyl]-5-cyanopyridine-2-carboxamide], with 16 nM. Then `NC1=N[C@@]2(c3cc(NC(=O)c4cnc(OC(F)F)cn4)ccc3F)CCOC[C@H]2CS1` (relative stereo) [Example 29, N-[3-((4aS*,8aS*)-2-amino-4a,5,7,8-tetrahydro-4H-6-oxa-3-thia-1-azanaphthalen-8a-yl)-4-fluorophenyl]-5-difluoromethoxypyrazine-2-carboxamide], with 4 nM; and `CNC(=O)c1ccc(C(=O)Nc2ccc(F)c([C@]34CCC[C@H]3CSC(N)=N4)c2)nc1` [Example 127], with 214 nM; and `N#Cc1ccc(C(=O)Nc2ccc(F)c([C@]34CCC[C@H]3CSC(N)=N4)c2)nc1` (single isomer, unassigned) [Example 22, N-[3-((4aR*,7aS*)-2-amino-4a,5,6,7-tetrahydro-4H-cyclopenta[d][1,3]thiazin-7a-yl)-4-fluorophenyl]-5-cyanopyridine-2-carboxamide], with 5 nM. On to `NC1=N[C@@]2(c3cc(NC(=O)c4ncc(C(F)(F)F)cc4Cl)ccc3F)CCC[C@H]2CS1` (single isomer, unassigned) [Example 184, N-[3-((4aR*,7aS*)-2-amino-4a,5,6,7-tetrahydro-4H-cyclopenta[d][1,3]thiazin-7a-yl)-4-fluorophenyl]-3-chloro-5-trifluoromethyl-pyridine-2-carboxamide], for which the IC50 stood at 13 nM. Then `N#Cc1cnc(C(=O)Nc2ccc(F)c([C@]34CCC[C@H]3CSC(N)=N4)c2)nc1` [Example 126], with 70 nM.

On to `NC1=N[C@@]2(c3cc(NC(=O)c4ccc(Br)o4)ccc3F)CCCC[C@H]2CS1` [Example 122], for which the IC50 came out at 123 nM. Then `C[C@H]1OC[C@]2(c3cc(NC(=O)c4ccc(C#N)cn4)ccc3F)N=C(N)SC[C@H]12` (relative stereo) [Example 54, N-[3-((4aS*,5R*,7aS*)-2-amino-5-methyl-4,5-dihydro-4H-furo[3,4-d][1,3]thiazin-7a-yl-4-fluorophenyl]-5-cyanopyridine-2-carboxamide], with 1.7 nM; and `C[C@H]1OC[C@]2(c3cc(NC(=O)c4ccc(Cl)cn4)ccc3F)N=C(N)SC[C@H]12` (relative stereo) [Example 56, N-[3-((4aS*,5R*,7aS*)-2-amino-5-meth 1-4a,5-dihydro-4H-furo[3,4-d][1,3]thiazin-7a-yl)-4-fluorophenyl]-5-chloropyridine-2-carboxamide], with 3 nM; and `CCCCO[C@@H]1C[C@H]2CSC(N)=N[C@@]2(c2cc(NC(=O)c3ccc(C#N)cn3)ccc2F)C1` (relative stereo) [Example 108, (+)-N-[3-((4aR*,6R*,7aS*)-2-amino-6-butoxy-4a,5,6,7-tetrahydro-4H-cyclopenta[d][1,3]thiazin-7a-yl)-4-fluorophenyl]-5-cyanopyridine-2-carboxamide], with 1 nM.

For `CO[C@@H]1C[C@H]2CSC(N)=N[C@@]2(c2cc(NC(=O)c3ccc(Cl)cn3)ccc2F)C1` (relative stereo) [Example 99, (+)-N-[3-((4aR*,6R*,7aS*)-2-amino-6-methoxy-4a,5,6,7-tetrahydro-4H-cyclopenta[d][1,3]thiazin-7a-yl)-4-fluorophenyl]-5-chloropyridine-2-carboxamide], the 50% inhibitory concentration (IC50) came out at 1 nM.

Regarding `NC1=N[C@@]2(c3cc(NC(=O)c4cnc(C(F)F)cn4)ccc3F)CO[C@H](CF)[C@H]2CS1` [Example 73, N-[3-((4aS,5S,7aS)-2-amino-5-fluoromethyl-4a,5-dihydro-4H-furo[3,4-d][1,3]thiazin-7a-yl)-4-fluorophenyl]-5-difluoromethylpyrazine-2-carboxamide], the IC50 was found to be 7 nM. Then `NC1=N[C@@]2(c3cc(NC(=O)c4ccc(Cl)cn4)ccc3F)CCCC[C@H]2CS1` (single isomer, unassigned) [Example 3, (+)-N-[3-((4aR.*,8aS*)-2-amino-4,4a,5,6,7,8-hexahydrobenzo[d][1,3]thiazin-8a-yl)-4-fluorophenyl]-5-chloropyridine-2-carboxamide], with 9 nM. On to `NC1=N[C@@]2(c3cc(NC(=O)c4cnc(Cl)cn4)ccc3F)CCCC[C@H]2CS1` (single isomer, unassigned) [Example 104, N-[3-((4aR*,8aS*)-2-amino-4,4a,5,6,7,8-hexahydrobenzo[d][1,3]thiazin-8a-yl)-4-fluorophenyl]-5-chloropyrazine-2-carboxamide], for which the IC50 amounted to 212 nM. Then `NC1=N[C@@]2(c3cc(NC(=O)c4ncc(Cl)cc4Cl)ccc3F)CCOC[C@H]2CS1` (single isomer, unassigned) [Example 185, N-[3-((4aS*,8aS*)-2-amino-4a,5,7,8-tetrahydro-4H-6-oxa-3-thia-1-azanaphthalen-8a-yl)-fluorophenyl]-3,5-dichloropyridine-2-carboxamide], with 10 nM; and `NC1=N[C@@]2(c3cc(NC(=O)c4ccc(Cl)cn4)ccc3F)CCC[C@H]2CS1` (relative stereo) [Example 5, (+)-N-[3-((4aR*,7aS*)-2-amino-4a,5,6,7-tetrahydro-4H-cyclopenta[d][1,3]thiazin-7a-yl)-4-fluorophenyl]-5-chloropyridine-2-carboxamide], with 3 nM.

`NC1=N[C@@]2(c3cc(NC(=O)c4ccc(OC(F)F)cn4)ccc3F)CCOC[C@H]2CS1` (relative stereo) [Example 81, N-[3-((4aS*,8aS*)-2-amino-4a,5,7,8-tetrahydro-4H-6-oxa-3-thia-1-azanaphthalen-8a-yl)-4-fluorophenyl]-5-difluoromethoxypyridine-2-carboxamide]: the IC50 is 14 nM. Then `C[C@H]1OC[C@H]2CSC(N)=N[C@]21c1cc(NC(=O)c2ccc(C#N)cn2)ccc1F` [Example 151], with 167 nM; and `NC1=N[C@@]2(c3cc(NC(=O)c4cnc(C(F)F)cn4)ccc3F)CCC[C@H]2CS1` (single isomer, unassigned) [Example 191, N-[3-((4aR*,7aS*)-2-amino-4a,5,6,7-tetrahydro-4H-cyclopenta[d][1,3]thiazin-7a-yl)-4-fluorophenyl]-5-difluoromethylpyrazine-2-carboxamide], with 9 nM. As for `NC1=N[C@@]2(c3cc(NC(=O)c4ccccn4)ccc3F)CCC[C@H]2CS1` (relative stereo) [Example 6, N-[3-((4aR*,7aS*)-2-amino-4a,5,6,7-tetrahydro-4H-cyclopenta[d][1,3]thiazin-7a-yl)-4-fluorophenyl]pyridine-2-carboxamide], the IC50 turned out to be 88 nM.

On to `NC1=N[C@@]2(c3cc(NC(=O)c4cnc(OC(F)F)cn4)ccc3F)CCO[C@H](CF)[C@H]2CS1` (relative stereo) [Example 145, N-[3-((4aS*,5S*,8aS*)-2-amino-5-fluoromethyl-4a,5,7,8-tetrahydro-4H-6-oxa-3-thia-1-azanaphthalen-8a-yl)-4-fluorophenyl]-5-difluoromethoxypyrazine-2-carboxamide], for which the IC50 is 3 nM. Then `NC1=N[C@@]2(c3cccc(-c4cccnc4F)c3)CN(c3cccc(F)n3)C[C@H]2CS1` [Example 88], with 75 nM; and `NC1=N[C@@]2(c3cc(NC(=O)c4cnc(OCF)cn4)ccc3F)CCO[C@H](CF)[C@H]2CS1` (relative stereo) [Example 144, N-[3-((4aS*,5S*,8aS*)-2-amino-5-fluoromethyl-4a,5,7,8-tetrahydro-4H-6-oxa-3-thia-1-azanaphthalen-8a-yl)-4-fluorophenyl]-5-fluoromethoxypyrazine-2-carboxamide], with 11 nM.
